Data from patent publication US11414406B2, “Antagonists of the muscarinic acetylcholine receptor M4” (Vanderbilt University, priority 2018, dated 2022).
Where two headings read alike, the source gives them in different places.

Target: T1, Human M4 (Homo sapiens, UniProt P08173)
T1 construct: expressed in transfected cells
T1 sequence (P08173 1-479): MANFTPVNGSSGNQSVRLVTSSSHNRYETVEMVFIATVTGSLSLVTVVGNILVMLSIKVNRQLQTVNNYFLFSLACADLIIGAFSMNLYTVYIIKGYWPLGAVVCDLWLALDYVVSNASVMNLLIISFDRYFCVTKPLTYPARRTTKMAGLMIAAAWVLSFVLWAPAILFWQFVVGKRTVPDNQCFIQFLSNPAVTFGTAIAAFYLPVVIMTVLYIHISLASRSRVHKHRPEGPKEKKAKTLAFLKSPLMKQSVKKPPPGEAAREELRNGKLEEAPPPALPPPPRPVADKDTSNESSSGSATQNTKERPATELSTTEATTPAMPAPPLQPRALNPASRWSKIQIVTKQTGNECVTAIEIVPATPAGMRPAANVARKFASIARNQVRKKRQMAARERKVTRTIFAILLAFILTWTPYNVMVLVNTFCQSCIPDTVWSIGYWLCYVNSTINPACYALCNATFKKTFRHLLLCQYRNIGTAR
Assay: mAChR M4 cell-based functional assay (calcium flux, decrease of EC80 acetylcholine response)
Conditions: for IC50: decrease of response to EC80 acetylcholine
Procedure: Human M4 cDNA, along with the chimeric G protein Gqi5, were transfected into Chinese hamster ovary (CHO-K1) cells purchased from the American Type Culture Collection using Lipofectamine2000. M4/Gqi5/CHO cells were grown in Ham's F-12 medium containing 10% heat-inactivated fetal bovine serum (FBS), 20 mM HEPES, 500 μg/mL G418 sulfate, and 200 μg/mL Hygromycin B.
For high throughput measurement of agonist-evoked increases in intracellular calcium, CHO-K1 cells stably expressing muscarinic receptors were plated in growth medium lacking G418 and hygromycin at 15,000 cells/20 μL/well in Greiner 384-well black-walled, tissue culture (TC)-treated, clear-bottom plates (VWR). Cells were incubated overnight at 37° C. and 5% CO2. The next day, cells were washed using an ELX 405 (BioTek) with assay buffer; the final volume was then aspirated to 20 μL. Next, 20 μL of a 2.3 μM stock of Fluo-4/acetoxymethyl ester (Invitrogen, Carlsbad, Calif.), prepared as a 2.3 mM stock in DMSO and mixed in a 1:1 ratio with 10% (w/v) Pluronic F-127 and diluted in assay buffer, was added to the wells and the cell plates were incubated for 50 min at 37° C. and 5% CO2. Dye was removed by washing with the ELX 405 and the final volume was aspirated to 20 μL. Compound master plates were formatted in a 10 point concentration-response curve (CRC) format (1:3 dilutions) in 100% DMSO with a starting concentration of 10 or 1 mM using a BRAVO liquid handler (Agilent). Test compound CRCs were then transferred to daughter plates (240 nL) using the Echo acoustic plate reformatter (Labcyte, Sunnyvale, Calif.) and then diluted into assay buffer (40 μL) to a 2× stock using a Thermo Fisher Combi (Thermo Fisher Scientific, Waltham, Mass.).
Calcium flux was measured using the Functional Drug Screening System (FDSS) 6000 or 7000 (Hamamatsu Corporation, Tokyo, Japan) as an increase in the fluorescent static ratio. Compounds were applied to cells (20 μL, 2×) using the automated system of the FDSS at 2 seconds into the protocol and the data were collected at 1 Hz. At 143 s, 10 μL of an EC20 concentration of the muscarinic receptor agonist acetylcholine was added (5×), followed by the addition of 12 μL of an EC80 concentration of acetylcholine at the 268 s time point (5×). Agonist activity was analyzed as a concentration-dependent increase in calcium mobilization upon compound addition. Positive allosteric modulator activity was analyzed as a concentration-dependent increase in the EC20 acetylcholine response. Antagonist activity was analyzed as a concentration-dependent decrease in the EC80 acetylcholine response; for the purposes of the tables herein, an IC50 (inhibitory concentration 50) was calculated as a concentration-dependent decrease of the response elicited by an EC80 concentration of acetylcholine. Concentration-response curves were generated using a four-parameter logistical equation in XLFit curve fitting software (HMS, Bridgewater, N.J.) for Excel (Microsoft, Redmond, Wash.) or Prism (GraphPad Software, Inc., San Diego, Calif.) or the Dotmatics software platform (Dotmatics, Bishop's Stortford, UK).
Compounds were synthesized as described above. Activity (IC50 and Emin) was determined in the inAChR M4 cell-based functional assay as described above and the data are shown in Table 2. The compound numbers correspond to the compound numbers used in Examples 1 and 2 and Tables 1 and 2.

[1] = M4/Gqi5/CHO-K1 cells, % ACh maximum at 30 μM, read-out: Emin (% ACh maximum at 30 μM)

Row | remaining activity at 30 µM [1] [%] | IC50 (M4/Gqi5/CHO-K1 cells) [µM] | Structure (SMILES) | remaining activity at 30 µM (CHO-K1, read-out: Emin (% ACh maximum at 30 μM)) [%]
1 | 4 | 0.255 | CC(C)(C)CCN1C[C@@H]2[C@H](C1)[C@H]2Nc1ccc(-c2cc(F)ccc2F)nn1 [Compound 37, (1R,5S,6s)-N-[6-(2,5-difluorophenyl)pyridazin-3-yl]-3-(3,3-dimethylbutyl)-3-azabicyclo[3.1.0]hexan-6-amine] | 
2 | 5 | 0.139 | Cn1cc2cc(-c3ccc(N[C@H]4[C@@H]5CN(CCC(C)(C)C)C[C@@H]54)nn3)ccc2n1 [Compound 39, (1R,5S,6s)-3-(3,3-dimethylbutyl)-N-[6-(2-methylindazol-5-yl)pyridazin-3-yl]-3-azabicyclo[3.1.0]hexan-6-amine] | 
3 | 36 |  | Fc1ccc(F)c(-c2ccc(N[C@H]3[C@@H]4CN(Cc5ccc6c(c5)OCO6)C[C@@H]43)nn2)c1 [Compound 35, (1R,5S,6s)-3-(1,3-benzodioxol-5-ylmethyl)-N-[6-(2,5-difluorophenyl)pyridazin-3-yl]-3-azabicyclo[3.1.0]hexan-6-amine] | 
4 | 40 |  | Fc1ccc(-c2ccc(N[C@H]3[C@@H]4CN(CC5CCOCC5)C[C@@H]43)nn2)c(F)c1 [Compound 32, (1R,5S,6s)-N-[6-(2,4-difluorophenyl)pyridazin-3-yl]-3-(tetrahydropyran-4-ylmethyl)-3-azabicyclo[3.1.0]hexan-6-amine] | 
5 | 46 |  | Fc1ccc(F)c(-c2ccc(N[C@H]3[C@@H]4CN(Cc5ccccn5)C[C@@H]43)nn2)c1 [Compound 34, (1R,5S,6s)-N-[6-(2,5-difluorophenyl)pyridazin-3-yl]-3-(2-pyridylmethyl)-3-azabicyclo[3.1.0]hexan-6-amine] | 
6 | 40 | > 10 | Cc1cc(CN2C[C@@H]3[C@H](C2)[C@H]3Nc2ccc(-c3ccc4nn(C)cc4c3)nn2)nn1C [Compound 38, (1R,5S,6s)-3-[(1,5-dimethylpyrazol-3-yl)methyl]-N-[6-(2-methylindazol-5-yl)pyridazin-3-yl]-3-azabicyclo[3.1.0]hexan-6-amine] | 

The remaining lines, values behind:

Row | Structure (SMILES) | remaining activity at 30 µM [1] [%] | IC50 (M4/Gqi5/CHO-K1 cells) [µM] | remaining activity at 30 µM (CHO-K1, read-out: Emin (% ACh maximum at 30 μM)) [%]
7 | Fc1ccc(Cl)c(-c2ccc(CN[C@H]3[C@@H]4CN(CC5CCCCC5)C[C@@H]43)nn2)c1 [Compound 6, (1R,5S,6s)-N-((6-(2-chloro-5-fluoro-phenyl)pyridazin-3-yl)methyl)-3-(cyclohexylmethyl)-3-azabicyclo[3.1.0]hexan-6-amine] | 17.8 |  | 
8 | Fc1cccc(-c2ccc(N[C@H]3[C@@H]4CN(CC5CCOCC5)C[C@@H]43)nn2)c1Cl [Compound 13, (1R,5S,6s)-N-[6-(2-chloro-3-fluoro-phenyl)pyridazin-3-yl]-3-(tetrahydropyran-4-ylmethyl)-3-azabicyclo[3.1.0]hexan-6-amine] | 8 | 1.85 | 
9 | Fc1cccc(-c2ccc(N[C@H]3[C@@H]4CN(CC5CCOCC5)C[C@@H]43)nn2)c1F [Compound 31, (1R,5S,6s)-N-[6-(2,3-difluorophenyl)pyridazin-3-yl]-3-(tetrahydropyran-4-ylmethyl)-3-azabicyclo[3.1.0]hexan-6-amine] | 27 |  | 
10 | Clc1ccccc1-c1ccc(N[C@H]2[C@@H]3CN(CC4CCOCC4)C[C@@H]32)nn1 [Compound 11, (1S,5R,6s)-N-[6-(2-chlorophenyl)pyridazin-3-yl]-3-(tetrahydropyran-4-ylmethyl)-3-azabicyclo[3.1.0]hexan-6-amine] | 11 | 2.96 | 
11 | Fc1ccc(Cl)c(-c2ccc(N[C@H]3[C@@H]4CN(Cc5ccc6c(c5)OCO6)C[C@@H]43)nn2)c1 [Compound 25, (1R,5S,6s)-3-(1,3-benzodioxol-5-ylmethyl)-N-[6-(2-chloro-5-fluoro-phenyl)pyridazin-3-yl]-3-azabicyclo[3.1.0]hexan-6-amine] | 6 | 0.889 | 
12 | Fc1cccc(CN2C[C@@H]3[C@H](C2)[C@H]3Nc2ccc(-c3cc(F)ccc3Cl)nn2)c1 [Compound 22, (1R,5S,6s)-N-[6-(2-chloro-5-fluoro-phenyl)pyridazin-3-yl]-3-[(3-fluorophenyl)methyl]-3-azabicyclo[3.1.0]hexan-6-amine] | 29 |  | 
13 | Fc1ccc(Cl)c(-c2ccc(N[C@H]3[C@@H]4CN(Cc5ccccn5)C[C@@H]43)nn2)c1 [Compound 24, (1R,5S,6s)-N-[6-(2-chloro-5-fluoro-phenyl)pyridazin-3-yl]-3-(2-pyridylmethyl)-3-azabicyclo[3.1.0]hexan-6-amine] | 16 | 6.77 | 
14 | Fc1ccc(-c2ccc(N[C@H]3[C@@H]4CN(CC5CCOCC5)C[C@@H]43)nn2)c(Cl)c1 [Compound 14, (1R,5S,6s)-N-[6-(2-chloro-4-fluoro-phenyl)pyridazin-3-yl]-3-(tetrahydropyran-4-ylmethyl)-3-azabicyclo[3.1.0]hexan-6-amine] | 12 |  | 
15 | Cc1nn(C)cc1-c1ccc(CN[C@H]2[C@@H]3CN(CCC(C)(C)C)C[C@@H]32)nn1 [Compound 4, (1R,5S,6s)-N-((6-(1,3-dimethyl-1H-pyrazol-4-yl)pyridazin-3-yl)methyl)-3-(3,3-dimethylbutyl)-3-azabicyclo[3.1.0]hexan-6-amine] |  |  | 36.7
16 | Fc1ccc(CN2C[C@@H]3[C@H](C2)[C@H]3Nc2ccc(-c3cc(F)ccc3Cl)nn2)cc1 [Compound 23, (1R,5S,6s)-N-[6-(2-chloro-5-fluoro-phenyl)pyridazin-3-yl]-3-[(4-fluorophenyl)methyl]-3-azabicyclo[3.1.0]hexan-6-amine] | 30 | 1.66 | 
17 | Fc1ccccc1-c1ccc(N[C@H]2[C@@H]3CN(CC4CCOCC4)C[C@@H]32)nn1 [Compound 8, (1R,5S,6s)-N-[6-(2-fluorophenyl)pyridazin-3-yl]-3-(tetrahydropyran-4-ylmethyl)-3-azabicyclo[3.1.0]hexan-6-amine] | 38 |  | 
18 | CC(=O)Nc1ccc(-c2ccc(N[C@H]3[C@@H]4CN(CC5CCOCC5)C[C@@H]43)nn2)cc1 [Compound 19, N-[4-[6-[[(1R,5S,6s)-3-(tetrahydropyran-4-ylmethyl)-3-azabicyclo[3.1.0]hexan-6-yl]amino]pyridazin-3-yl]phenyl]acetamide] | 39 |  | 
19 | Cc1nn(C)cc1-c1ccc(N[C@H]2[C@@H]3CN(CC(C)C(C)(C)C)C[C@@H]32)nn1 (stereo partly drawn) [Compound 3, (1R,5S,6s)-N-[6-(1,3-dimethylpyrazol-4-yl)pyridazin-3-yl]-3-(2,3,3-trimethylbutyl)-3-azabicyclo[3.1.0]hexan-6-amme] | 24 |  | 
20 | Cn1cc2cc(-c3ccc(N[C@H]4[C@@H]5CN(CC6CCOCC6)C[C@@H]54)nn3)ccc2n1 [Compound 18, (1R,5S,6s)-N-[6-(2-methylindazol-5-yl)pyridazin-3-yl]-3-(tetrahydropyran-4-ylmethyl)-3-azabicyclo[3.1.0]hexan-6-amine] | 27 |  | 
